Laboratory results: PMC4490394 (Scientific Reports, 2015)
Residue numbers refer to the chain shown, from its start.

Experiments:
VCaP cells = assay: VCaP proliferation assay (WST-1); format: cell-based; settings: Homo sapiens, 96 h, 0.1 nM mibolerone, steroid-depleted medium, 4 days, WST-1, read-out: IC50, androgen-induced VCaP cell proliferation
Protocol: VCaP cells were treated with a submaximal concentration of mibolerone (0.1 nM) and increasing concentrations of test compounds in steroid-free assay medium supplemented with 4 mM GlutaMAX. After a 4-day incubation with the compounds, cell viability was measured using a WST-1 cell proliferation assay (Roche), according to manufacturer’s instructions.

H1581 lung cancer cells = assay: Viability of AR-negative cells (WST-1); format: cell-based, human; settings: increasing concentrations, 4 days
subcutaneous VCaP tumors = assay: Castration-resistant VCaP xenograft, tumor volume; format: in vivo, castrated nude mice; settings: 37 days
AR(W741L) = molecular target: T1, AR(W741L) (Homo sapiens, UniProt P10275, W742L)
T1 sequence (P10275 1-920 W742L): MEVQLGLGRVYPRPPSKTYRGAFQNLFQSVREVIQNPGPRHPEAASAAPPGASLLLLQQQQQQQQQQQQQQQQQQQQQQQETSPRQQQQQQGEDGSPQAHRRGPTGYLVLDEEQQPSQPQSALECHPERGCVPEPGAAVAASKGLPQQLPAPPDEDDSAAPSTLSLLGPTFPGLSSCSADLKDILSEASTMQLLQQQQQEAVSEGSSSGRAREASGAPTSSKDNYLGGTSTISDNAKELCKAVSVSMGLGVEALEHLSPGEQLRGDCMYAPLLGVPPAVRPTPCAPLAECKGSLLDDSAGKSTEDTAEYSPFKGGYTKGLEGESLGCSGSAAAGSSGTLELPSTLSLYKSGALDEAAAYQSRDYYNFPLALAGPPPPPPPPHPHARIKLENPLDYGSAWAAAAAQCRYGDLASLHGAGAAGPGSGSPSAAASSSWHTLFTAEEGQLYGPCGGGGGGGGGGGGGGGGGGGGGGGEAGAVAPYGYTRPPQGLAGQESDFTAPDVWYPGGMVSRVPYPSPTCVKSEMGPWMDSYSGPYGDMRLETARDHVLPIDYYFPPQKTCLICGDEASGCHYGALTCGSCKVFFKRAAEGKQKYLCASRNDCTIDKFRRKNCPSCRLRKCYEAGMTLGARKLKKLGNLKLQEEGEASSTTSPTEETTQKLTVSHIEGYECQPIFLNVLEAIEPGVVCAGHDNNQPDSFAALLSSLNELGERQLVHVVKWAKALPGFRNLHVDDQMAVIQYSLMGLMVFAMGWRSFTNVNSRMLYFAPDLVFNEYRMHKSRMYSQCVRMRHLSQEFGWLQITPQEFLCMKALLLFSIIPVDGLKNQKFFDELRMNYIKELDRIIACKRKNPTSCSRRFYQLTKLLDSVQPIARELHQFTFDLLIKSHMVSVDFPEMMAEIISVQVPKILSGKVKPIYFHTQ
Protocol: (§1) For one well in a 96-well plate, 190 ng of reporter construct DNA and 10 ng of receptor construct DNA were diluted in Opti-MEM® (Gibco). […] Luciferase activity was measured as described above.

AR(T877A) = molecular target: T2, AR(T877A) (Homo sapiens, UniProt P10275, T878A)
T2 sequence (P10275 1-920 T878A): T1 sequence (P10275 1-920 W742L) with L742W, T878A
Protocol: as §1

[1] = tested on: AR nuclear translocation in HS-HEK293 cells
Protocol: AR overexpressing HS-HEK293 cells immunolabeled with an AR-antibody were imaged either with a high-content screening (HCS) reader (Cellomics ArrayScan HCS VTI reader, Thermo) or with a confocal microscope (LSM780, Zeiss). HS-HEK293 cells in steroid-free assay medium were plated on poly-D-lysine coated microplates (BD) (HCS reader) or on coverslips (confocal imaging). After a 48-hour incubation, the cells were treated with 0.3 (HCS reader) or 1 μM (confocal imaging) of test compounds together with 0.3 nM testosterone for 5 hours. […] Cells were washed, DNA was labeled with DAPI (Sigma, 1 μg//mL), and images were analyzed with a NucTrans. V3 assay algorithm (Thermo). […] Coverslips were mounted with Vectashield containing DAPI (Vector Laboratories).

PSA = settings: chemotherapy-naïve CRPC patients, 700 mg twice daily, ARADES study ref 28; cited from earlier work
testosterone = settings: ODM-201-treated patients ref 28; cited from earlier work

## CC(O)c1cc(C(=O)N[C@@H](C)Cn2ccc(-c3ccc(C#N)c(Cl)c3)n2)[nH]n1 (stereo partly drawn) [ODM-201]
VCaP cells
  IC50: 230 nM
H1581 lung cancer cells
  effect on viability of H1581 cells: no effect
Subcutaneous VCaP tumors; 50 mg/kg oral once daily, vs castrated untreated mice
  antitumor activity (tumor volume): significant antitumor activity
Subcutaneous VCaP tumors; 50 mg/kg oral twice daily, p < 0.001 vs castrated untreated mice, p = 0.0245 vs enzalutamide
  antitumor activity (tumor volume): significant antitumor activity
AR(W741L)
  functional activity (agonist/antagonist) on AR(W741L): full antagonists
AR(T877A)
  functional activity (agonist/antagonist) on AR(T877A): full antagonists
[1]
  effect on testosterone-induced nuclear translocation of AR: inhibit
PSA
  PSA response (50% or greater decrease), share of patients: 86%
testosterone
  serum testosterone levels in treated patients: maintained at castrate levels
